Results on 21 compounds are retold here after patent US20120101093A1, “SUBSTITUTED IMIDAZO[1,2-A]PYRIDINE DERIVATIVES, PHARMACEUTICAL COMPOSITIONS, AND METHODS OF USE AS BETA-SECRETASE INHIBITORS” (HIGH POINT PHARMACEUTICALS, LLC, priority 2009, published 2012).

The target in the assay is T1, BACE-1 enzyme (Homo sapiens, UniProt P56817).
T1 construct: purchased R & D Systems 931AS
Description: BACE Fluorescence Resonance Energy Transfer (FRET) Assay. It is filed as biochemical. Particulars: pH 4-4.5, 30 min pre-incubation, about 1.5 hours reaction. A digest of the protocol:
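Fluorescence (ex 540, em 585 nm) after ~1.5 h room-temperature cleavage of a quenched rhodamine peptide tracks BACE-1 activity. Enzyme and compound first sit 30 min in pH 4-4.5 acetate buffer with CHAPS, Triton X-100, EDTA, 7.5% DMSO. Values given as IC50 or % inhibition.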

T1 sequence (P56817 46-457 limits assumed): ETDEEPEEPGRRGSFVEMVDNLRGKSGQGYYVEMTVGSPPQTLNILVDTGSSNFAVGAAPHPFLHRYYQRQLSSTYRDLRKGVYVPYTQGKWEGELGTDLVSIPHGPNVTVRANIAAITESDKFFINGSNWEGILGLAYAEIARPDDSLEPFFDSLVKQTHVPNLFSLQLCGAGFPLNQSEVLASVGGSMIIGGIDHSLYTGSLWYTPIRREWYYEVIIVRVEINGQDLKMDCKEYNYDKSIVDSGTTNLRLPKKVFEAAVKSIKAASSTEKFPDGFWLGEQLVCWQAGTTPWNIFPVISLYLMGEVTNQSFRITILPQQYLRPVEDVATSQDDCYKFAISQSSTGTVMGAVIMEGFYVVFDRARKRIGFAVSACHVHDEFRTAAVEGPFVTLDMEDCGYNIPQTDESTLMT

As for `O=C(Nc1nc2cc(-c3cccc(C(F)(F)F)c3)ccc2[nH]1)c1cn2ccc(CN3CCNCC3)cc2n1` [Example 203, 7-Piperazin-1-ylmethyl-imidazo[1,2-a]pyridine-2-carboxylic acid [5-(3-trifluoromethyl-phenyl)-1H-benzoimidazol-2-yl]-amide], the IC50 – broadly, the concentration that inhibits the measured activity by half – stood at 0.66 µM. That is a sub-micromolar value. With `COCCNCc1ccn2cc(C(=O)Nc3nc4cc(-c5cccc(C(F)(F)F)c5)ccc4[nH]3)nc2c1` [Example 208, 7-[(2-Methoxy-ethylamino)-methyl]-imidazo[1,2-a]pyridine-2-carboxylic acid [5-(3-trifluoromethyl-phenyl)-1H-benzoimidazol-2-yl]-amide] the figure was 0.23 µM; with `O=C(Nc1nc2cc(-c3cccc(C(F)(F)F)c3)ccc2[nH]1)c1cn2ccc(CNCCN3CCOCC3)cc2n1` [Example 210, 7-[(2-Morpholin-4-yl-ethylamino)-methyl]-imidazo[1,2-a]pyridine-2-carboxylic acid [5-(3-trifluoromethyl-phenyl)-1H-benzoimidazol-2-yl]-amide], 0.18 µM. With `CCN(CCO)Cc1ccn2cc(C(=O)Nc3nc4cc(-c5cccc(C(F)(F)F)c5)ccc4[nH]3)nc2c1` [Example 211, 7-{[Ethyl-(2-hydroxy-ethyl)-amino]-methyl}-imidazo[1,2-a]pyridine-2-carboxylic acid [5-(3-trifluoromethyl-phenyl)-1H-benzoimidazol-2-yl]-amide] the figure was 0.24 µM; with `CN(C)CCNCc1ccn2cc(C(=O)Nc3nc4cc(-c5cccc(C(F)(F)F)c5)ccc4[nH]3)nc2c1` [Example 212, 7-[(2-Dimethylamino-ethylamino)-methyl]-imidazo[1,2-a]pyridine-2-carboxylic acid [5-(3-trifluoromethyl-phenyl)-1H-benzoimidazol-2-yl]-amide], 0.26 µM.

`Cn1cc(-c2cccc3nc(C(=O)Nc4nc5cc(-c6cccc(C(F)(F)F)c6)ccc5[nH]4)cn23)cn1` [Example 213, 5-(1-methyl-1H-pyrazol-4-yl)-N-{5-[3-(trifluoromethyl)phenyl]-1H-benzimidazol-2-yl}imidazo[1,2-a]pyridine-2-carboxamide] displayed a 50% inhibitory concentration (IC50) of 0.26 µM. In the case of `O=C(Nc1nc2cc(-c3cccc(C(F)(F)F)c3)ccc2[nH]1)c1cn2cccc(-c3ccccc3)c2n1` [Example 216, 8-phenyl-N-{5-[3-(trifluoromethyl)phenyl]-1H-benzimidazol-2-yl}imidazo[1,2-a]pyridine-2-carboxamide] it was 0.65 µM.

Turning to `O=C(Nc1nc2cc(-c3cccc(C(F)(F)F)c3)ccc2[nH]1)c1cn2c(-c3ccncc3)cccc2n1` [Example 217, 5-(pyridin-4-yl)-N-{5-[3-(trifluoromethyl)phenyl]-1H-benzimidazol-2-yl}imidazo[1,2-a]pyridine-2-carboxamide], the IC50 was found to be 0.15 µM.

Turning to `O=C(Nc1nc2cc(-c3cccc(C(F)(F)F)c3)ccc2[nH]1)c1cn2c(C3CCNCC3)cccc2n1` [Example 218, 5-(piperidin-4-yl)-N-{5-[3-(trifluoromethyl)phenyl]-1H-benzimidazol-2-yl}imidazo[1,2-a]pyridine-2-carboxamide], half-maximal inhibition (IC50) required 0.45 µM. In the case of `CCCc1cccc2nc(C(=O)Nc3nc4cc(-c5cccc(C(F)(F)F)c5)ccc4[nH]3)cn12` [Example 220, 5-propyl-N-{5-[3-(trifluoromethyl)phenyl]-1H-benzimidazol-2-yl}imidazo[1,2-a]pyridine-2-carboxamide] it was 0.38 µM.

The compound `CCCc1cccc2nc(C(=O)Nc3nc4cc(-c5cccc(OC(F)(F)F)c5)ccc4[nH]3)cn12` [Example 221, 5-propyl-N-{5-[3-(trifluoromethoxy)phenyl]-1H-benzimidazol-2-yl}imidazo[1,2-a]pyridine-2-carboxamide] displayed an IC50 of 0.28 µM. This IC50 and that of the compound before are within 1.5-fold of each other. For the compound `CC(C)c1cccc2nc(C(=O)Nc3nc4cc(-c5cccc(C(F)(F)F)c5)ccc4[nH]3)cn12` [Example 222, 5-(propan-2-yl)-N-{5-[3-(trifluoromethyl)phenyl]-1H-benzimidazol-2-yl}imidazo[1,2-a]pyridine-2-carboxamide], the half-inhibitory concentration (IC50) came to 1.23 µM. In the case of `CC(C)c1cccc2nc(C(=O)Nc3nc4cc(-c5cccc(OC(F)(F)F)c5)ccc4[nH]3)cn12` [Example 223, 5-(propan-2-yl)-N-{5-[3-(trifluoromethoxy)phenyl]-1H-benzimidazol-2-yl}imidazo[1,2-a]pyridine-2-carboxamide] it was 0.83 µM; in that of `CCc1cccc2nc(C(=O)Nc3nc4cc(-c5cccc(OC(F)(F)F)c5)ccc4[nH]3)cn12` [Example 224, 5-ethyl-N-{5-[3-(trifluoromethoxy)phenyl]-1H-benzimidazol-2-yl}imidazo[1,2-a]pyridine-2-carboxamide], 0.55 µM. With `O=C(Nc1nc2cc(-c3cc(F)cc(Cl)c3)ccc2[nH]1)c1cn2c(C(=O)NC3CCNCC3)cccc2n1` [Example 225, Imidazo[1,2-a]pyridine-2,5-dicarboxylic acid 2-{[5-(3-chloro-5-fluoro-phenyl)-1H-benzoimidazol-2-yl]-amide} 5-piperidin-4-ylamide] the figure was 0.48 µM. For `CNC(=O)c1cccn2cc(C(=O)Nc3nc4cc(-c5cccc(C(F)(F)F)c5)ccc4[nH]3)nc12` [Example 229, Imidazo[1,2-a]pyridine-2,8-dicarboxylic acid 8-methylamide 2-{[5-(3-trifluoromethyl-phenyl)-1H-benzoimidazol-2-yl]-amide}], it took 0.16 µM to reach half-maximal inhibition (IC50).

`CN(C)C(=O)c1cccn2cc(C(=O)Nc3nc4cc(-c5cccc(C(F)(F)F)c5)ccc4[nH]3)nc12` [Example 230, Imidazo[1,2-a]pyridine-2,8-dicarboxylic acid 8-dimethylamide 2-{[5-(3-trifluoromethyl-phenyl)-1H-benzoimidazol-2-yl]-amide}]: it took 0.28 µM to reach half-maximal inhibition (IC50). In the case of `COCCNC(=O)c1cccn2cc(C(=O)Nc3nc4cc(-c5cccc(C(F)(F)F)c5)ccc4[nH]3)nc12` [Example 231, Imidazo[1,2-a]pyridine-2,8-dicarboxylic acid 8-[(2-methoxy-ethyl)-amide] 2-{[5-(3-trifluoromethyl-phenyl)-1H-benzoimidazol-2-yl]-amide}], the IC50 was found to be 0.31 µM.

`O=C(Nc1nc2cc(-c3cccc(Cl)c3)ccc2[nH]1)c1cn2cc(N3CC[C@H](O)C3)ccc2n1` [Example 232, 6-((S)-3-Hydroxy-pyrrolidin-1-yl)-imidazo[1,2-a]pyridine-2-carboxylic acid [5-(3-chloro-phenyl)-1H-benzoimidazol-2-yl]-amide]: 0.14 µM corresponded to half-maximal inhibition (IC50). With `CO[C@H]1CCN(c2ccc3nc(C(=O)Nc4nc5cc(-c6cccc(Cl)c6)ccc5[nH]4)cn3c2)C1` [Example 233, 6-((S)-3-Methoxy-pyrrolidin-1-yl)-imidazo[1,2-a]pyridine-2-carboxylic acid [5-(3-chloro-phenyl)-1H-benzoimidazol-2-yl]-amide] the figure was 0.41 µM.

With `O=C(Nc1nc2cc(-c3cccc(Cl)c3)ccc2[nH]1)c1cn2cc(OCCOC3CCCCO3)ccc2n1` (stereo not drawn) [Example 234, 6-[2-(Tetrahydro-pyran-2-yloxy)-ethoxy]-imidazo[1,2-a]pyridine-2-carboxylic acid [5-(3-chloro-phenyl)-1H-benzoimidazol-2-yl]-amide], inhibition was half-maximal at 0.35 µM (IC50).
